Data: patent US20150289514A1 (priority 2012, published 2015)

Key:
Assay type in all cases: in vivo
Phytophthora infestans = settings: tomatoes, preventive spray, 1 ppm a.i., evaluated 3 days after inoculation
Alternaria solani = experiment: Alternaria test (tomatoes)/preventive; settings: preventive spray, evaluated 3 days after inoculation
Venturia inaequalis = experiment: Venturia test (apples)/preventive; settings: preventive spray, evaluated 10 days after inoculation

SMILES	Efficacy in % found (Phytophthora infestans) [%]	Efficacy in % found (Alternaria solani; 1 ppm a.i.) [%]	Efficacy in % found (Venturia inaequalis; 1 ppm a.i.) [%]	Efficacy in % found (Alternaria solani; 0.5 ppm a.i.) [%]	Efficacy in % found (Venturia inaequalis; 0.25 ppm a.i.) [%]
CO/C=C(/C(=O)OC)c1ccccc1Oc1cc(Oc2ccccc2C#N)ncn1 [F107, azoxystrobin]	61	39	–	–	–
CSC1=N[C@@](C)(c2ccccc2)C(=O)N1Nc1ccccc1 [F114, fenamidone]	37	–	–	–	–
COC(=O)N(OC)c1ccccc1COc1ccn(-c2ccc(Cl)cc2)n1 [F121, pyraclostrobin]	–	–	65	30	–
CON=C(C(=O)OC)c1ccccc1CON=C(C)c1cccc(C(F)(F)F)c1 [F126, trifloxystrobin]	–	38	–	–	60
